Experimental data reported in US20080051387A1, “TETRAHYDROPYRIDO[3,4-D]PYRIMIDINES AND RELATED ANALOGUES” (priority 2006, published 2008).

Target: T1, chimeric human H3 receptor (Homo sapiens, UniProt Q9Y5N1)
T1 construct: rat Galpha-i2 (Gnai2, rat); made in house; host or cells: Sf9 insect cells (baculovirus); P2 membranes
Test: Chimeric human H3 receptor screening GTP binding assay (inhibition of histamine-stimulated GTP-gamma35S binding, Example 8)
Assay type: biochemical
Settings: symbol ! in Ki; test compound 4 μM, 1 μM histamine; read-out: percent inhibition of agonist-induced GTP-gammaS binding to H3
How it was run: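 Sf9 membranes co-expressing chimeric human H3 receptor and heterotrimeric G-protein (35 μg protein) incubated 60 min at room temperature with 4 μM compound, 1 μM histamine and 125 pM GTP-gamma35S in pH 7.4 buffer with 10 μM GDP. Filter-bound radioactivity, nonspecific (10 μM GTP-gammaS) subtracted, reported as % inhibition of histamine signal.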

T1 sequence (Q9Y5N1 with tags, fused parts or gaps): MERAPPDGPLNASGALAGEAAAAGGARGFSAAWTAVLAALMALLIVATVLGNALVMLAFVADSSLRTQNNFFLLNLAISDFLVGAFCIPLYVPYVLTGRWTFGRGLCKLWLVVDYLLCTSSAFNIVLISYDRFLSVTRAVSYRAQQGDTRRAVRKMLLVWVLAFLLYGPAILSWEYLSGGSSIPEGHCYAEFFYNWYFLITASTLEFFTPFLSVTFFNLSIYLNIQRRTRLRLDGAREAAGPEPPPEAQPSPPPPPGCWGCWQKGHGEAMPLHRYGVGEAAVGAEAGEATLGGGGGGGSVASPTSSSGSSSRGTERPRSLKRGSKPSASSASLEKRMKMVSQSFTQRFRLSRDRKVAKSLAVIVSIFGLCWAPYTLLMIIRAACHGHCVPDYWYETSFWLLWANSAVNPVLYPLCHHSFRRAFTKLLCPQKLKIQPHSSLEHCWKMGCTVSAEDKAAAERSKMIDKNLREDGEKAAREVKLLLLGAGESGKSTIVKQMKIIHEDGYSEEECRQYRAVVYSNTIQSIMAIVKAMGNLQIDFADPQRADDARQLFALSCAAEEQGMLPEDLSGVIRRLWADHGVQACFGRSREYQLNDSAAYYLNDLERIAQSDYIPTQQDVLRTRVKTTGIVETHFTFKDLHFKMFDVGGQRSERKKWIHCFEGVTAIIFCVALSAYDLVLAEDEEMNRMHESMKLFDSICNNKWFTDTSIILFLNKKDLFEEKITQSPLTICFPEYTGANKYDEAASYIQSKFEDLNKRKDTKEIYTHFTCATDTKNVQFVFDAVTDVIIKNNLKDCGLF

| inhibition at 4 µM [%] | Structure (SMILES) |
| --- | --- |
| ≥ 90 | Fc1ccc(CN2CCc3nc(N4CCN(C5CCC5)CC4)ncc3C2)cc1 [Compound 613, 2-(4-cyclobutylpiperazin-1-yl)-6-(4-fluorobenzyl)-5,6,7,8-tetrahydropyrido[4,3-d]pyrimidine] |
| ≥ 90 | Cc1cccc(CN2CCc3nc(N4CCN(C5CCC5)CC4)ncc3C2)c1 [Compound 614, 2-(4-cyclobutylpiperazin-1-yl)-6-(3-methylbenzyl)-5,6,7,8-tetrahydropyrido[4,3-d]pyrimidine] |
| ≥ 90 | Cc1ccc(CN2CCc3nc(N4CCN(C5CCC5)CC4)ncc3C2)cc1 [Compound 615, 2-(4-cyclobutylpiperazin-1-yl)-6-(4-methylbenzyl)-5,6,7,8-tetrahydropyrido[4,3-d]pyrimidine] |
| ≥ 90 | Cn1ccnc1CN1CCc2nc(N3CCN(C4CCC4)CC3)ncc2C1 [Compound 616, 2-(4-cyclobutylpiperazin-1-yl)-6-[(1-methyl-1H-imidazol-2-yl)methyl]-5,6,7,8-tetrahydropyrido[4,3-d]pyrimidine] |
| ≥ 90 | c1ccc2c(CN3CCc4nc(N5CCN(C6CCC6)CC5)ncc4C3)ccnc2c1 [Compound 617, 2-(4-cyclobutylpiperazin-1-yl)-6-(quinolin-4-ylmethyl)-5,6,7,8-tetrahydropyrido[4,3-d]pyrimidine] |
| ≥ 90 | c1ccc2ncc(CN3CCc4nc(N5CCN(C6CCC6)CC5)ncc4C3)cc2c1 [Compound 618, 2-(4-cyclobutylpiperazin-1-yl)-6-(quinolin-3-ylmethyl)-5,6,7,8-tetrahydropyrido[4,3-d]pyrimidine] |
| ≥ 90 | Cc1cccc(CN2CCc3nc(N4CCN(C5CCC5)CC4)ncc3C2)n1 [Compound 619, 2-(4-cyclobutylpiperazin-1-yl)-6-[(6-methylpyridin-2-yl)methyl]-5,6,7,8-tetrahydropyrido[4,3-d]pyrimidine] |
| ≥ 90 | c1cncc(CN2CCc3nc(N4CCN(C5CCC5)CC4)ncc3C2)c1 [Compound 620, 2-(4-cyclobutylpiperazin-1-yl)-6-(pyridin-3-ylmethyl)-5,6,7,8-tetrahydropyrido[4,3-d]pyrimidine] |
| ≥ 90 | c1cc(N2CCOCC2)ncc1CN1CCc2nc(N3CCN(C4CCC4)CC3)ncc2C1 [Compound 621, 2-(4-cyclobutylpiperazin-1-yl)-6-[(6-morpholin-4-ylpyridin-3-yl)methyl]-5,6,7,8-tetrahydropyrido[4,3-d]pyrimidine] |
| ≥ 90 | Cc1cc(CN2CCc3nc(N4CCN(C5CCC5)CC4)ncc3C2)n(C)n1 [Compound 622, 2-(4-cyclobutylpiperazin-1-yl)-6-[(1,3-dimethyl-1H-pyrazol-5-yl)methyl]-5,6,7,8-tetrahydropyrido[4,3-d]pyrimidine] |
| ≥ 90 | COc1ccccc1CN1CCc2nc(N3CCN(C4CCC4)CC3)ncc2C1 [Compound 623, 2-(4-cyclobutylpiperazin-1-yl)-6-(2-methoxybenzyl)-5,6,7,8-tetrahydropyrido[4,3-d]pyrimidine] |
| ≥ 90 | COc1ccc(CN2CCc3nc(N4CCN(C5CCC5)CC4)ncc3C2)c(OC)c1 [Compound 624, 2-(4-cyclobutylpiperazin-1-yl)-6-(2,4-dimethoxybenzyl)-5,6,7,8-tetrahydropyrido[4,3-d]pyrimidine] |
| ≥ 90 | CC(C)c1ccc(CN2CCc3nc(N4CCN(C5CCC5)CC4)ncc3C2)cc1 [Compound 625, 2-(4-cyclobutylpiperazin-1-yl)-6-(4-isopropylbenzyl)-5,6,7,8-tetrahydropyrido[4,3-d]pyrimidine] |
| ≥ 90 | CC(C)CCN1CCc2nc(N3CCN(C4CCC4)CC3)ncc2C1 [Compound 626, 2-(4-cyclobutylpiperazin-1-yl)-6-(3-methylbutyl)-5,6,7,8-tetrahydropyrido[4,3-d]pyrimidine] |
| ≥ 90 | CCCN1CCc2nc(N3CCN(C4CCC4)CC3)ncc2C1 [Compound 627, 2-(4-cyclobutylpiperazin-1-yl)-6-propyl-5,6,7,8-tetrahydropyrido[4,3-d]pyrimidine] |
| ≥ 90 | CCCCN1CCc2nc(N3CCN(C4CCC4)CC3)ncc2C1 [Compound 628, 6-butyl-2-(4-cyclobutylpiperazin-1-yl)-5,6,7,8-tetrahydropyrido[4,3-d]pyrimidine] |
| ≥ 90 | CCCCCN1CCc2nc(N3CCN(C4CCC4)CC3)ncc2C1 [Compound 629, 2-(4-cyclobutylpiperazin-1-yl)-6-pentyl-5,6,7,8-tetrahydropyrido[4,3-d]pyrimidine] |
| ≥ 90 | CCCCCCN1CCc2nc(N3CCN(C4CCC4)CC3)ncc2C1 [Compound 630, 2-(4-cyclobutylpiperazin-1-yl)-6-hexyl-5,6,7,8-tetrahydropyrido[4,3-d]pyrimidine] |
| ≥ 90 | CC(C)CN1CCc2nc(N3CCN(C4CCC4)CC3)ncc2C1 [Compound 631, 2-(4-cyclobutylpiperazin-1-yl)-6-isobutyl-5,6,7,8-tetrahydropyrido[4,3-d]pyrimidine] |
| ≥ 90 | CCC(C)CN1CCc2nc(N3CCN(C4CCC4)CC3)ncc2C1 (stereo not shown) [Compound 632, 2-(4-cyclobutylpiperazin-1-yl)-6-(2-methylbutyl)-5,6,7,8-tetrahydropyrido[4,3-d]pyrimidine] |
| ≥ 90 | CCC(CC)CN1CCc2nc(N3CCN(C4CCC4)CC3)ncc2C1 [Compound 633, 2-(4-cyclobutylpiperazin-1-yl)-6-(2-ethylbutyl)-5,6,7,8-tetrahydropyrido[4,3-d]pyrimidine] |
| ≥ 90 | c1nc(N2CCN(C3CCC3)CC2)nc2c1CN(CC1CC1)CC2 [Compound 634, 2-(4-cyclobutylpiperazin-1-yl)-6-(cyclopropylmethyl)-5,6,7,8-tetrahydropyrido[4,3-d]pyrimidine] |
| ≥ 90 | CCCC(C)CN1CCc2nc(N3CCN(C4CCC4)CC3)ncc2C1 (stereo not shown) [Compound 635, 2-(4-cyclobutylpiperazin-1-yl)-6-(2-methylpentyl)-5,6,7,8-tetrahydropyrido[4,3-d]pyrimidine] |
| ≥ 90 | c1nc(N2CCN(C3CCC3)CC2)nc2c1CN(CC1CCOC1)CC2 (stereo not shown) [Compound 636, 2-(4-cyclobutylpiperazin-1-yl)-6-(tetrahydrofuran-3-ylmethyl)-5,6,7,8-tetrahydropyrido[4,3-d]pyrimidine] |
| ≥ 90 | Cc1ccc(CN2CCc3nc(N4CCN(C5CCC5)CC4)ncc3C2)cc1C [Compound 637, 2-(4-cyclobutylpiperazin-1-yl)-6-(3,4-dimethylbenzyl)-5,6,7,8-tetrahydropyrido[4,3-d]pyrimidine] |
| ≥ 90 | c1cc2c(cc1CN1CCc3nc(N4CCN(C5CCC5)CC4)ncc3C1)OCCO2 [Compound 638, 2-(4-cyclobutylpiperazin-1-yl)-6-(2,3-dihydro-1,4-benzodioxin-6-ylmethyl)-5,6,7,8-tetrahydropyrido[4,3-d]pyrimidine] |
| ≥ 90 | c1ccc2nc(CN3CCc4nc(N5CCN(C6CCC6)CC5)ncc4C3)ccc2c1 [Compound 639, 2-(4-cyclobutylpiperazin-1-yl)-6-(quinolin-2-ylmethyl)-5,6,7,8-tetrahydropyrido[4,3-d]pyrimidine] |
| ≥ 90 | COc1cccc(CN2CCc3nc(N4CCN(C5CCC5)CC4)ncc3C2)c1OC [Compound 640, 2-(4-cyclobutylpiperazin-1-yl)-6-(2,3-dimethoxybenzyl)-5,6,7,8-tetrahydropyrido[4,3-d]pyrimidine] |
